# Key:
# human lymphocyte = test: Human in vitro lymphocyte electrogenicity assay; format: cell-based
# Excerpt: Mavacamten was not genotoxic in a bacterial reverse mutation test (Ames test), a human in vitro lymphocyte […] assay, or a rat in vivo micronucleus assay.
# BCRP = BCRP (Homo sapiens, UniProt Q9UNQ0); test: In vitro transporter inhibition; format: in vitro ADME
# [1] = system: organic anion transporting polypeptides (OATPs); test: In vitro transporter inhibition; format: in vitro ADME
# [2] = Clinical pharmacokinetics; format: in vivo, human
# Description: At the same dose level of MAVACAMTEN, 170% higher exposures of mavacamten are observed in patients with HCM compared to healthy subjects.
# The Tmax was increased by 4 hours.
# Mavacamten has a variable terminal t1/2 that depends on CYP2C19 metabolic status. […] Drug accumulation occurs with an accumulation ratio of about 2-fold for Cmax and about 7-fold for AUC in CYP2C19 NMs. The accumulation depends on the metabolism status for CYP2C19 with the largest accumulation observed in CYP2C19 PMs. At steady-state, the peak-to-trough plasma concentration ratio with once daily dosing is approximately 1.5.
# Following a single 25 mg dose of radiolabeled mavacamten, 7% of the dose was recovered in feces (1% unchanged) and 85% in urine (3% unchanged).
# The effects of severe (eGFR: 15 to 30 mL/min/1.73 m^2) renal impairment and kidney failure (eGFR: <15 mL/min/1.73 m^2; including patients on dialysis) are unknown.
# pregnant rats = test: Embryo-fetal development study in rats; format: in vivo, rat
# Excerpt: Plasma exposure (based on area under the concentration-time curve or AUC) at the no-effect dose for embryo-fetal development in rats is 0.3 times the exposure in humans at the MRHD.
# [3] = Pharmacokinetics in hepatic impairment; format: in vivo, human; settings: mild (Child-Pugh A) or moderate (Child-Pugh B) hepatic impairment vs normal hepatic function
# Excerpt: No dosage adjustment is required in patients with mild (Child-Pugh A) to moderate (Child-Pugh B) hepatic impairment. […] However, no additional dose adjustment is required in patients with mild to moderate hepatic impairment with the recommended dose titration algorithm and monitoring plan. The effect of severe (Child-Pugh C) hepatic impairment is unknown.
# The effect of severe (Child-Pugh C) hepatic impairment is unknown.
# CYP3A4 = CYP3A4 (Homo sapiens, UniProt P08684); test: Metabolism, contribution of CYP3A4; format: in vitro ADME
# Sequence of CYP3A4 (P08684 whole entry): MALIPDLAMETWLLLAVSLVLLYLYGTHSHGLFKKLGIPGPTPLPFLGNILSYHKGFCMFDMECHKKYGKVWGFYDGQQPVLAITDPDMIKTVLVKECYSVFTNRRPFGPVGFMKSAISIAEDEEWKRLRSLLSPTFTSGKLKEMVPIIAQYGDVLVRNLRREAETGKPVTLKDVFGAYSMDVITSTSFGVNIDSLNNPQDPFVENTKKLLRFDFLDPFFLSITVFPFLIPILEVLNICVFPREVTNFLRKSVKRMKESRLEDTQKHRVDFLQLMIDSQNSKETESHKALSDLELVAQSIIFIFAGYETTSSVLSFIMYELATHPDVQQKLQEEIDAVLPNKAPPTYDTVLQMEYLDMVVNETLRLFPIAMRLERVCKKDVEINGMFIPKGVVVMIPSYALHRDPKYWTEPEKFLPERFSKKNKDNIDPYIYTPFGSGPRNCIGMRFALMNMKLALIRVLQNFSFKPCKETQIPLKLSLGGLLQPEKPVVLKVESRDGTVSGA
# Excerpt: (§1) Mavacamten is extensively metabolized, primarily through CYP2C19 (74%), CYP3A4 (18%), and CYP2C9 (8%).
# (§2) Statement of Purpose: Mavacamten is a first-in-class, selective, allosteric, and reversible cardiac myosin inhibitor in development for the treatment of adults with symptomatic obstructive hypertrophic cardiomyopathy. Mavacamten is hepatically metabolized predominantly via CYP2C19 (74%), CYP3A4 (18%) and CYP2C9 (8%). A previously developed fit-for-purpose physiologically based pharmacokinetic (PBPK) model was applied to explore the induction effects of a strong CYP3A4/CYP2C19 inducer-rifampin, as well as a strong CYP3A4 inducer-carbamazepine, on mavacamten exposures.
# male or female rats = test: Reproductive toxicity studies (mating and fertility); format: in vivo, rat
# [4] = system: adults with symptomatic NYHA class II and III obstructive HCM; settings: Olivotto et al., 2020, The Lancet; cited from earlier work
# CYP2C9 = CYP2C9 (Homo sapiens, UniProt P11712); test: Metabolism, contribution of CYP2C9; format: in vitro ADME
# Sequence of CYP2C9 (P11712 whole entry): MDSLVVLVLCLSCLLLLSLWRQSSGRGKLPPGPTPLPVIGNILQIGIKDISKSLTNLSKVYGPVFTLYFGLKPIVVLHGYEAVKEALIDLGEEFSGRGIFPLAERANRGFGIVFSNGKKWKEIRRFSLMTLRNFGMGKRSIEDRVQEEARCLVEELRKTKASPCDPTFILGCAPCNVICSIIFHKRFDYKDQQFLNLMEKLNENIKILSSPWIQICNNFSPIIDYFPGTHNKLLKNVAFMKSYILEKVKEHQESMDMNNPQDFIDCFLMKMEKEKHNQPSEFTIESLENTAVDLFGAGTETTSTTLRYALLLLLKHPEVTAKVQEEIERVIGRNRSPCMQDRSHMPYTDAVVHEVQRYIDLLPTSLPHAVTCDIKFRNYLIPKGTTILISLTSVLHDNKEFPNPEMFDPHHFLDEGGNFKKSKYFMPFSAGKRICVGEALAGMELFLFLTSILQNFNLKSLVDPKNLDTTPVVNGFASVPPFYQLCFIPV
# Excerpt: as §1, §2
# MATE2-K = MATE2-K (Homo sapiens, UniProt Q86VL8); test: In vitro transporter inhibition; format: in vitro ADME
# Sequence of MATE2-K (Q86VL8 1-566 isoform Q86VL8-3): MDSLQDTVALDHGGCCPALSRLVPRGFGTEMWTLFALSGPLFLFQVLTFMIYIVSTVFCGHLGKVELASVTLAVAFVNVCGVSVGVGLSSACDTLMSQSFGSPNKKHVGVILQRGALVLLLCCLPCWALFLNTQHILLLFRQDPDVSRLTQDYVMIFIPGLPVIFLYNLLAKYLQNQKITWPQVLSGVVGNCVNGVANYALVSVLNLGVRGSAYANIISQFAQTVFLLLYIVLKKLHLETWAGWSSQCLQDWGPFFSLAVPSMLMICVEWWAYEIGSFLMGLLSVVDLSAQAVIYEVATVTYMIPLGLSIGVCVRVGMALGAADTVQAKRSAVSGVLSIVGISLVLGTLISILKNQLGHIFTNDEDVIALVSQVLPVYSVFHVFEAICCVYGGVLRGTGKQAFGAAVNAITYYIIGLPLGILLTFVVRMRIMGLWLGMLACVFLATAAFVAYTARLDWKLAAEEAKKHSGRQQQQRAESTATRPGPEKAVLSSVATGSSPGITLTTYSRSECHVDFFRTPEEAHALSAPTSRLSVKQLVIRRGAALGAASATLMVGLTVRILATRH
# dogs = test: Animal toxicology, dogs; format: in vivo
# Description: The safety of mavacamten has been evaluated in rats and dogs at multiple dose levels (0.06 to 10 mg/kg/day) orally. […] Plasma exposures (AUC) at the NOAEL in rats and dogs were 0.1 and 0.3 times, respectively, human exposure (AUC) at the MRHD.
# rasH2 transgenic mouse = test: 6-month rasH2 transgenic mouse carcinogenicity study; format: in vivo
# BSEP = BSEP (Homo sapiens, UniProt O95342); test: In vitro transporter inhibition; format: in vitro ADME
# Sequence of BSEP (O95342 whole entry): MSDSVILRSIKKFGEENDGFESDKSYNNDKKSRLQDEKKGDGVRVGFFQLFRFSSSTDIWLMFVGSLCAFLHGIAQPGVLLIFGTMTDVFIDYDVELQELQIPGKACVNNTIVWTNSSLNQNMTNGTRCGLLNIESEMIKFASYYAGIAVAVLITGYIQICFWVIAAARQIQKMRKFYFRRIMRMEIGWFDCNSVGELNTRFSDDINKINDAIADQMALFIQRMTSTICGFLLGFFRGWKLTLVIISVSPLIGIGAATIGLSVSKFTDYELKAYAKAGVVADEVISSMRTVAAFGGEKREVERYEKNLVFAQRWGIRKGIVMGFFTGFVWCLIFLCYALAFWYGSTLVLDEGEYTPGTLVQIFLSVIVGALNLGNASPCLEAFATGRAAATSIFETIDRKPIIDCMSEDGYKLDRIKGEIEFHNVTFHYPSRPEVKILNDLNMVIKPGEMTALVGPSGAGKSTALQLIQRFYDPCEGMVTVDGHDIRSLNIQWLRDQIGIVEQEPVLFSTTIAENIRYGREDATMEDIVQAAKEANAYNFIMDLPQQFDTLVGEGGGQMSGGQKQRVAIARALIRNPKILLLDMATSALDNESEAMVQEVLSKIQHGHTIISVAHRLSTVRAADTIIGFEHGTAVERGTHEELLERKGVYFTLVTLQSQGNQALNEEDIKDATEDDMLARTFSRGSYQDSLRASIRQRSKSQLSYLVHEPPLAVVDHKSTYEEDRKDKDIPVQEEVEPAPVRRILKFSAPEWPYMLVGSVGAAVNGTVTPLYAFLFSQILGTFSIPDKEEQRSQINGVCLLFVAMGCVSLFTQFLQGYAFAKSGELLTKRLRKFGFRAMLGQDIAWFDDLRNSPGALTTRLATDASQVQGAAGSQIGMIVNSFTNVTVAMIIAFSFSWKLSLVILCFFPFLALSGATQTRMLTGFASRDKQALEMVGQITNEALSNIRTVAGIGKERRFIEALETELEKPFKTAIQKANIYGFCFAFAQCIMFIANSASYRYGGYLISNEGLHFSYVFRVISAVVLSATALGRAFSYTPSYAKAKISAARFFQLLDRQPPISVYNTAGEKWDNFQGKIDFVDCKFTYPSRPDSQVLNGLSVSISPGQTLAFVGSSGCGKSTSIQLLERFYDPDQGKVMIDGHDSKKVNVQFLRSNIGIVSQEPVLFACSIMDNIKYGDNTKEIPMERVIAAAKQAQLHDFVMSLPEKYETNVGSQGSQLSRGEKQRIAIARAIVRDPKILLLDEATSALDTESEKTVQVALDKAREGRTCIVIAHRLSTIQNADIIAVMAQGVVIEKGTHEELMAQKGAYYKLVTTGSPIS
# healthy volunteers = test: Cardiac electrophysiology (QTc) in healthy volunteers; format: in vivo, human
# Excerpt: The mechanism of the QT prolongation effect is not known.
# [5] = system: organic anion transporters (OATs); test: In vitro transporter inhibition; format: in vitro ADME
# [6] = system: organic cation transporters (OCTs); test: In vitro transporter inhibition; format: in vitro ADME
# Sequence of BCRP (Q9UNQ0 whole entry): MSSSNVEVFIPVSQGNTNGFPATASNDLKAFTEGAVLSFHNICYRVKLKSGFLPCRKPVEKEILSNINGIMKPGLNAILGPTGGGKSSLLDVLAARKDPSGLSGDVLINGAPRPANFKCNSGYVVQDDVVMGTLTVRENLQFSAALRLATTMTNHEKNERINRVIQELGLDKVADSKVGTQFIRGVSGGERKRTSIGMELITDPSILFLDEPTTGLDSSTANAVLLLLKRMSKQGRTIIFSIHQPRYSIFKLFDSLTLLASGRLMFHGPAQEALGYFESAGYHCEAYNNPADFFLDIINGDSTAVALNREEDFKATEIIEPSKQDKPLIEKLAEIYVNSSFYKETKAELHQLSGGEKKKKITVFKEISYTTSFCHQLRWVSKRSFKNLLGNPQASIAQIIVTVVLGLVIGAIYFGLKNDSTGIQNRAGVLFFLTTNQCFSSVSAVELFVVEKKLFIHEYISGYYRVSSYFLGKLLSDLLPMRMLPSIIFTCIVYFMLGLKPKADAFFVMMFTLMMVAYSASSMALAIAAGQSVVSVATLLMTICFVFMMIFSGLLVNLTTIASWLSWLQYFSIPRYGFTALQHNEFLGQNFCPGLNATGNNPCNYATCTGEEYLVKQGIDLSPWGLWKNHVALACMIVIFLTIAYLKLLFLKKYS
compound,measurement,setting,value
"CC(C)n1c(=O)cc(N[C@@H](C)c2ccccc2)[nH]c1=O [mavacamten, (S)-3-Isopropyl-6-((1-phenylethyl)amino)pyrimidine-2,4(1H,3H)-dione]","Genotoxicity, human in vitro lymphocyte electrogenicity assay",human lymphocyte,not genotoxic
same,Inhibition of BCRP,BCRP,does not inhibit
same,Inhibition of OATPs,[1],does not inhibit
same,Pharmacokinetics in specific populations,"[2]; age 18-82 years, sex, race, ethnicity, mild to moderate renal impairment",No clinically significant differences
same,Effect of food on pharmacokinetics,[2]; high fat meal,No clinically significant differences
same,Dose proportionality of exposure,[2]; multiple once-daily doses of 1 mg to 15 mg,increases generally dose proportionally
same,Higher exposure in patients with HCM compared to healthy subjects,[2]; same dose level,170%
same,Embryo-fetal findings in the high dose group,"pregnant rats; oral, 1.5 mg/kg/day, period of organogenesis","increases in post-implantation loss, decreases in mean fetal body weight, reductions in fetal ossification of bones, and fetal malformations (visceral and skeletal)"
same,Plasma exposure (AUC) at the no-effect dose for embryo-fetal development vs humans at the MRHD,pregnant rats; rats,0.3 times
same,Embryo-fetal findings (risk summary),"pregnant rats; rats, dose exposures similar to that at the MRHD","decreases in mean fetal body weight, reductions in fetal ossification of bones, and increases in post-implantation loss"
same,Increase in mavacamten exposure (AUC),[3],up to 220%
same,Metabolism through CYP3A4,CYP3A4,18%
same,Effects on viability and fertility of offspring,male or female rats; dams dosed up to 1.5 mg/kg/day,no evidence of effects
same,Plasma exposure (AUC) at the highest dose tested,male or female rats; vs humans at the MRHD,the same as in humans at the MRHD
same,Clinical benefit in EXPLORER-HCM,[4],"effective in reducing LVOT gradients and improving symptoms, exercise performance and health status"
same,Metabolism through CYP2C9,CYP2C9,8%
same,Inhibition of MATE2-K,MATE2-K,does not inhibit
same,Plasma exposure (AUC) at the NOAEL vs human exposure at the MRHD,dogs,0.3 times
same,Carcinogenicity,"rasH2 transgenic mouse; 6-month, up to 2.0 mg/kg/day in males and 3.0 mg/kg/day in females",no evidence of carcinogenicity
same,Exposure (AUC) compared to humans at the MRHD,"rasH2 transgenic mouse; females, 3.0 mg/kg/day",3 fold
same,Exposure (AUC) compared to humans at the MRHD,"rasH2 transgenic mouse; males, 2.0 mg/kg/day",1.8 fold
same,Inhibition of BSEP,BSEP,does not inhibit
same,"QTc interval effect, multiple doses",healthy volunteers; doses up to 25 mg once daily,concentration-dependent increase in the QTc interval
same,"QTc interval effect, single-dose studies",healthy volunteers; similar exposures,No acute QTc changes
same,Inhibition of OATs,[5],does not inhibit
same,Inhibition of OCTs,[6],does not inhibit
